In article PMC8385015, “Tumour-on-chip microfluidic platform for assessment of drug pharmacokinetics and treatment response” (Communications Biology, 2021):
Where “and” joins values, the source holds several entries; their conditions need not be identical. Identical values can stand only once. Like-named read-outs stand apart in the source and are kept apart here.

Tests used:
[1] = in vivo; settings: mouse
Experimental: The samples were collected at 5, 15, 40 min, and 1, 2, 4, 6, 8 and 24 h.
Whole blood was mixed 1:5 with PBS and centrifuged at 1500×g for 3 min at 4 °C, and the plasma was extracted and frozen at –80 °C.
Using this PK model, a time course of free plasma concentrations of both drugs was simulated (Table 1).
Acidified acetonitrile ([…]) was added with the internal standard, followed by centrifugation at 3000 rpm for 10 min. Supernatant ([…]) was then removed to a clean plate and dried under nitrogen. […]
Supplementary Method 8. Pharmacokinetic models parameters used for simulations
AZD156 PK model and PK parameters used for simulations

[2] = test system: SW620 xenograft; format: in vivo; settings: irinotecan 50 mg/kg IP day 1 weekly + vehicle PO, single animals
Experimental: We tested different weekly in vivo dosing schedules, previously evaluated in SW620 spheroids on the chip (Fig. 5a) using matched exposure profiles to those previously observed in mouse plasma.
Male immunocompromised Hsd:Athymic Nude-Foxn1nu mice (Envigo) were used for xenograft tumour implantation. […] Animals were randomised into groups of 9–15 when tumours reached a volume of ~0.30 cm[3] and 4 weekly cycles of treatment commenced.
Tumours were measured twice weekly (length × width) by bilateral Vernier calliper measurements and tumour volume calculated using Mousetrap software. Tumour growth inhibition from start of treatment was assessed by comparison of the mean change in tumour volume for the control and treated groups using the Mousetrap application and represented as TGI.

[3] = population PK model parameter, mean

CCc1c2c(nc3ccc(OC(=O)N4CCC(N5CCCCC5)CC4)cc13)-c1cc3c(c(=O)n1C2)COC(=O)[C@]3(O)CC [Irinotecan]
Km ([1]; female, CB-17 SCID, in vivo): 6.12 nM | Q/(1-F4) ([1]; female, CB-17 SCID, in vivo): 0.0574 L/h | FM* [1, 3]: 0.286 | V2/(1-F4) [1, 3]: 0.0161 L | V3/(1-F4) [1, 3]: 5.26 L | Vmax [1, 3]: 0.0589 µM/h | ka [1, 3]: 0.454 h⁻¹ | Tumour size ([2]; day 7 (fig 5b 01)): 0.6466 cm^3 and 0.9799 cm^3 and 0.6666 cm^3 and 1.05 cm^3 and 0.9864 cm^3 and 1.225 cm^3 and 0.8608 cm^3 and 0.8801 cm^3 and 0.7589 cm^3 and 0.364 cm^3 and 1.22 cm^3 and 1.71 cm^3 and 0.9487 cm^3 and 0.9159 cm^3 and 0.8306 cm^3 | Tumour size ([2]; day 15 (fig 5b 02)): 1.28 cm^3 and 1.619 cm^3 and 0.8212 cm^3 and 0.6967 cm^3 and 1.922 cm^3 and 1.901 cm^3 and 1.374 cm^3 and 0.7853 cm^3 and 2.931 cm^3 | Tumour size ([2]; day 35 (fig 5b 03)): 3.4844 cm^3 and 2.894 cm^3 and 2.205 cm^3 and 2.6873 cm^3 and 2.88 cm^3 and 1.604 cm^3 and 1.682 cm^3
